Measured values reported in patent US20240217936A1, “5-BENZY[…] AND PREPARATION METHOD THEREFOR AND USE THEREOF” (WEST CHINA HOSPITAL, SICHUAN UNIVERSITY, priority 2021, published 2024).
Structures can show the parent of a compound that is named as a salt.

What was measured:
Male SD rats [1] = assay: Blood pressure change after tail vein injection (mean arterial pressure); conditions: dosage 2× ED50, injection within 15 seconds, 60 min recording, rats under isoflurane
Procedure: Male SD rats weighing 250-300 g were randomly divided into groups, with 10 rats in each group. General anesthesia was maintained by inhaling isoflurane. By intubating via femoral artery, blood pressure was monitored using the BL-420N biological signal collection and analysis system. minutes after blood pressure stabilization, the baseline mean arterial pressure (MAP0) was measured. Subsequently, the physiological saline solution of each test drug was injected via the tail vein (the dosage of each drug was the same as that in Experiment example 2, with a unified injection […] volume of 1 mL). […] All prodrug molecules were injected within 15 seconds. After injection of each drug, the change in blood pressure was continuously recorded for 60 min. […] The difference MAPΔ+ between the baseline mean arterial pressure (MAP0) and the highest mean arterial pressure (MAPmax) during the 60 min measurement time was calculated; the difference MAPΔ− between the baseline mean arterial pressure (MAP0) and the lowest mean arterial pressure (MAPmin) during the 60 min measurement time was also obtained; both of the difference values were used to calculate the maximum increase rate of mean arterial pressure +Δ%=MAPΔ+/MAP0*100% and the maximum decrease rate of mean arterial pressure −Δ%=MAPΔ−/MAP0*100%, respectively. The maximum increase rate of mean arterial pressure +Δ% and the maximum decrease rate −Δ% reflect the degree of blood pressure change that the body experienced after administration. The larger the value, the greater the blood pressure change that the body experienced.

Male SD rats [2] = assay: Hypnotic effect after tail vein injection (loss of righting reflex); assay type: in vivo, rat; conditions: for ED50: Rattus norvegicus, 50% of the dose for the disappearance of righting reflex in rats, tail vein injection; for Onset time: tail vein injection of 2× ED50, loss of righting reflex; for Onset time / Duration: rats; for Duration: tail vein injection of 2× ED50, until recovery of righting reflex
Procedure: Male SD rats, weighing 250-300 g, were randomly divided into groups, with 10 rats in each group. […] The onset times and the duration of hypnosis were recorded.

[3] = Degradation of prodrug in rat plasma (release of dexmedetomidine, HPLC); assay type: in vitro ADME; conditions: 37° C.
Procedure: The test prodrug was formulated as a 1 mg/mL of physiological saline solution, and then 100 μL of the prodrug solution was added to 900 μL of rat plasma. The test solution was vortexed for 30 s before incubation at 37° C. 50 μL of drug-containing plasma was collected at 0.5 min, 1 min, 2 min, 3 min, 5 min, 10 min, 15 min, 20 min, 30 min, and 60 min, respectively, to which was immediately added 150 μL of acetonitrile to terminate the enzymatic reaction, followed by adding the solution of internal standard telmisartan in methanol (30 μL, 20 μg/mL). Then, the resultant solution was centrifuged at 20000 rpm and 4° C. for 10 min. 100 μL of the supernatant was injected for detection by HPLC, and the concentration of dexmedetomidine was determined by an internal standard method. The degradation rate of the prodrug was calculated based on the concentration of dexmedetomidine. The chromatographic conditions are: Swell XDB C18 column (150 mm×4.6 mm, 5 μm); column temperature 30° C.; using gradient elution (see Table 1), mobile phase A: methanol, mobile phase B: 0.1% trifluoroacetic acid in water, and mobile phase C: acetonitrile; detection wavelength: 220 nm; flow rate: 1.0 mL/min; injection volume: 30 μL; retention time: 4.7 minutes for dexmedetomidine and 6.7 minutes for internal standard telmisartan. The linear range of dexmedetomidine: 2.5-100 μg/mL. Instruments: Waters 2695 high-performance liquid chromatograph, Waters 2996 photodiode array detector.

Row | Compound | +Δ % (The maximum increase rate of blood pressure) (Male SD rats [1]) | −Δ % (The maximum decrease rate of blood pressure) (Male SD rats [1]) | ED50 (Male SD rats [2]) | Onset time (Male SD rats [2]) | Duration (Male SD rats [2]) | Degradation rate of prodrug % ([3]; 0.5 min) | Degradation rate of prodrug % ([3]; 1 min) | Degradation rate of prodrug % ([3]; 2 min) | Degradation rate of prodrug % ([3]; 3 min) | Degradation rate of prodrug % ([3]; 5 min) | Degradation rate of prodrug % ([3]; 10 min) | Degradation rate of prodrug % ([3]; 15 min) | Degradation rate of prodrug % ([3]; 20 min) | Degradation rate of prodrug % ([3]; 30 min) | Degradation rate of prodrug % ([3]; 60 min)
1 | Cc1cccc([C@H](C)c2cn(COC(=O)C(C)C)cn2)c1C [Compound 2-HCl] | *19 ± 11% | 32 ± 5% | 0.043 mg/kg | 1.1 ± 0.2 min | 63 ± 15 min | 35% | 57% | 87% | 94% | 100% |  |  |  |  | 
2 | Cc1cccc([C@H](C)c2cn(COC(=O)C(C)(C)C)cn2)c1C [Compound 3-HCl] | *13 ± 6% | 41 ± 8% | 0.059 mg/kg | 2.6 ± 1.1 min | 50 ± 10 min | 36% | 73% | 87% | 96% | 100% |  |  |  |  | 
3 | Cc1cccc([C@H](C)c2cn(C(=O)OC(C)C)cn2)c1C [Compound 5-HCl] | *18 ± 6% | 35 ± 5% | 0.037 mg/kg | 3.7 ± 1.3 min | 61 ± 15 min | 36% | 47% | 52% | 67% | 89% | 98% | 100% |  |  | 
4 | CCOC(=O)OCn1cnc([C@@H](C)c2cccc(C)c2C)c1 [Compound 6-HCl] | *23 ± 9% | 36 ± 6% | 0.03 mg/kg | 2.1 ± 1.1 min | 45 ± 8 min | 21% | 47% | 76% | 89% | 96% | 100% |  |  |  | 
5 | Cc1cccc([C@H](C)c2cn(COC(=O)OC(C)C)cn2)c1C [Compound 7-HCl] | *17 ± 8% | 37 ± 8% | 0.036 mg/kg | 4.6 ± 1.3 min | 39 ± 11 min | 22% | 46% | 67% | 88% | 97% | 100% |  |  |  | 
6 | CCCC(=O)OCn1cnc([C@@H](C)c2cccc(C)c2C)c1 [Compound 8-HCl] | *18 ± 8% | 31 ± 7% | 0.024 mg/kg | 4.1 ± 2.4 min | 31 ± 13 min | 76% | 89% | 97% | 100% |  |  |  |  |  | 
7 | CCC(=O)OCn1cnc([C@@H](C)c2cccc(C)c2C)c1 [Compound 10-HCl] | 31 ± 7% | 40 ± 8% | 0.028 mg/kg | 2.3 ± 1.1 min | 48 ± 12 min | 57% | 82% | 85% | 97% | 100% |  |  |  |  | 
8 | CCCOC(=O)n1cnc([C@@H](C)c2cccc(C)c2C)c1 [Compound 11-HCl] | *25 ± 7% | 41 ± 8% | 0.026 mg/kg | 2.6 ± 0.3 min | 47 ± 8 min | 26% | 57% | 74% | 75% | 82% | 88% | 95% | 100% |  | 
9 | COC(=O)OCn1cnc([C@@H](C)c2cccc(C)c2C)c1 [Compound 13-HCl] | *16 ± 8% | 39 ± 7% | 0.025 mg/kg | 4.1 ± 1.3 min | 36 ± 7 min | 16% | 44% | 67% | 79% | 90% | 96% | 100% |  |  | 
10 | Cc1cccc([C@H](C)c2cn(COC(=O)OC3CCC3)cn2)c1C [Compound 14-HCl] | 31 ± 6% | 36 ± 6% | 0.031 mg/kg | 3.9 ± 2.1 min | 51 ± 7 min | 53% | 80% | 85% | 98% | 100% |  |  |  |  | 
11 | Cc1cccc([C@H](C)c2cn(COC(=O)C3CC3)cn2)c1C [Compound 15-HCl] | *21 ± 5% | 36 ± 6% | 0.03 mg/kg | 3.5 ± 1.2 min | 43 ± 9 min | 18% | 41% | 54% | 63% | 87% | 94% | 100% |  |  | 
12 | CC(=O)OC(C)n1cnc([C@@H](C)c2cccc(C)c2C)c1 (some centres unmarked) [Compound 17-HCl] | *15 ± 4% | 35 ± 6% | 0.029 mg/kg | 1.8 ± 0.7 min | 42 ± 12 min | 12% | 16% | 19% | 22% | 29% | 39% | 48% | 53% | 58% | 67%
13 | CCC(=O)OC(C)n1cnc([C@@H](C)c2cccc(C)c2C)c1 (some centres unmarked) [Compound 18-HCl] | 29 ± 12% | 34 ± 8% | 0.036 mg/kg | 2.4 ± 0.9 min | 41 ± 10 min | 17% | 33% | 42% | 48% | 54% | 59% | 64% | 69% | 72% | 75%
14 | Cc1cccc([C@H](C)c2cn(COC(=O)OC3CC3)cn2)c1C [Compound 22-HCl] | 34 ± 7% | 39 ± 6% | 0.024 mg/kg | 1.5 ± 0.2 min | 48 ± 9 min | 91% | 97% | 100% |  |  |  |  |  |  | 
15 | COC(=O)COC(=O)OCn1cnc([C@@H](C)c2cccc(C)c2C)c1 [Compound 23-HCl] | 29 ± 7% | 35 ± 8% | 0.051 mg/kg | 1.7 ± 0.4 min | 61 ± 15 min | 23% |  |  |  | 25% | 27% | 28% | 29% | 31% | 34%
